Test results: patent publication US8258127B2, “Methods for treating latent tuberculosis” (Institut National de la Sante et de la Recherche Medicale …, priority 2008, dated 2012)

Assays:
[1] = target: T1, LdtMt1 L,D-transpeptidase (Mycobacterium tuberculosis, UniProt O53638); test: Formation of enzyme-drug adducts between LdtMt1 and β-lactams (electrospray mass spectrometry); assay type: binding; details: LdtMt1 12.5 μM, β-lactam 125 μM, 1 h at 37° C.; for Average mass Observated of LdtMt1-β-lactam adduct: ND: not detected, native protein 24,584.4
Protocol: LdtMt1 (12.5 μM) was incubated without antibiotic (left panel) or with 125 μM imipenem (right panel). Proteins and adducts were detected by electrospray mass spectrometry. Peaks at m/z 848.75 and 879.03 correspond to the [M+29H]^29+ and [M+28H]^28+ ions of the native protein, respectively (deduced average mass of 24,584.4). Peaks at m/z 859.08 and 889.65 correspond to the [M+29H]^29+ and [M+28H]^28+ ions of the LdtMt1-imipenem adduct (deduced average mass of 24,883.5).
The formation of enzyme-drug adducts was tested by incubating LdtMt1 (12.5 μM) with β-lactams (125 μM) for 1 h at 37° C. in buffer A. The reaction mixture was dialyzed against water for 30 min and the average mass of proteins and protein-β-lactam adducts was determined as described (Mainardi et al., 2007, Supra).
To gain insight into the mechanism of LdtMt1 inhibition by β-lactams, binding of the drugs to the enzyme was tested by electrospray mass spectrometry. […] Adducts matching increments of the average mass of other carbapenems, meropenem and ertapenem, were also detected (Table 2 hereunder).

[2] = target: T1, LdtMt1 L,D-transpeptidase; test: Inhibition of LdtMt1 L,D-transpeptidase activity by β-lactams (formation of mDap3→mDap3 cross-linked dimers, mass spectrometry); assay type: biochemical; details: for blocking of the L,D-transpeptidase enzyme (summary in words): summary statement of the description
Protocol: The disaccharide-tetrapeptide containing amidated meso-diaminopimelic acid (GlcNAc-MurNAc-L-Ala^1-D-iGln^2-mesoDapNH2^3-D-Ala^4) was purified from C. jeikeium strain CIP103337 and the concentration w as determined by amino acid analysis after acid hydrolysis (Arbeloa et al., 2007, J. Biol. Chem., Vol. 279: 41546-41556; Auger et al., FEMS Microbiol. Lett., Vol. 219: 115-119). In vitro formation of muropeptide dimers was tested in 10 μL of 50 mM Tris-HCl (pH 7.5) containing 300 mM NaCl, 11 μM LdtMt1, and 280 μM disaccharide-tetrapeptide. The reaction mixture was incubated for 2 hours at 37° C., treated with ammonium hydroxide, and the resulting lactoyl-peptides were analyzed by nanoelectrospray tandem mass spectrometry using N2 as the collision gas (Arbeloa et al., 2007, Supra).
LdtMt1 (12.5 μM) was pre-incubated for 20 min at 37° C. with ampicillin (Bristol-Myers), ceftriaxone (Roche Applied Science), and imipenem (Merck Sharpe and Dhome-Chibret) in 50 mM Tris-HCl (pH 7.5) containing 300 mM NaCl (buffer A). The L,D-transpeptidation reaction was started by the addition of the disaccharide-tetrapeptide (final concentration 280 μM) and allowed to proceed for 2 hours at 37° C. The reaction products were detected by mass spectrometry (Mainardi et al., 2007, J. Biol. Chem., Vol. 282: 30414-30422).
To investigate inhibition of the L,D-transpeptidase activity of LdtMt1 by β-lactams, the formation of dimers containing mDap^3→mDap^3 cross-links was tested in the presence of various drug concentrations.

[3] = LdtMt1 12.5 μM, pre-incubated 20 min at 37° C., disaccharide-tetrapeptide 280 μM, 2 hours

T1 sequence (O53638 32-251 limits assumed): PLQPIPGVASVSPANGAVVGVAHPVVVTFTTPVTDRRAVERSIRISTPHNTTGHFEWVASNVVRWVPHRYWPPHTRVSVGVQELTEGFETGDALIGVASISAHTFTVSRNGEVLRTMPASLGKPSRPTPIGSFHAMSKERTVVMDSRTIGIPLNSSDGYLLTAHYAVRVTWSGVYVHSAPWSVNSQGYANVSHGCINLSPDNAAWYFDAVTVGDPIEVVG

Row | Structure (SMILES) | formation of adduct with LdtMt1 (in words) [1] | highest tested concentration without inhibition of LdtMt1 [2, 3] | blocking of the L,D-transpeptidase enzyme (summary in words) [2] | drug concentration required for full inhibition of enzyme activity [2, 3] | Average mass Observated of LdtMt1-β-lactam adduct [1]
1 | CC1(C)S[C@@H]2[C@H](NC(=O)[C@H](N)c3ccccc3)C(=O)N2[C@H]1C(=O)O [Ampicillin, ampicillin] | No adduct was detected | > 5.7 mM | inactive |  | 
2 | CO/N=C(\C(=O)N[C@@H]1C(=O)N2C(C(=O)O)=C(CSc3nc(=O)c(=O)[nH]n3C)CS[C@H]12)c1csc(N)n1 [Ceftriaxone, ceftriaxone] | No adduct was detected |  |  | 360 µM | 
3 | C[C@@H](O)[C@H]1C(=O)N2C(C(=O)O)=C(S[C@@H]3CN[C@H](C(=O)Nc4cccc(C(=O)O)c4)C3)[C@H](C)[C@H]12 [Ertapenem, ertapenem] | detected |  | block the said L,D-transpeptidase enzyme |  | 25,059.9
4 | C[C@@H](O)[C@H]1C(=O)N2C(C(=O)O)=C(S[C@@H]3CN[C@H](C(=O)N(C)C)C3)[C@H](C)[C@H]12 [Meropenem, meropenem] | detected |  | block the said L,D-transpeptidase enzyme |  | 24,967.8
